Assays:
recombinant mouse HGF = biological target: T1, recombinant mouse HGF (Mus musculus, UniProt Q08048); test: Inhibition of nitration of recombinant HGF protein by peroxynitrite (ONOO-), Western blot with anti-nitrotyrosine antibody; assay type: biochemical; details: for inhibit nitration of tyrosine residues in HGF: summary statement
T1 construct: purchased R&D Systems 2207-HG-025/CF
Procedure: GSSSG dihydrate produced by the method described in Patent Literature 1 was added to and mixed with a purified preparation of recombinant mouse HGF (2207-HG-025/CF, manufactured by R&D Systems, carrier free) dissolved in PBS such that the molar ratio of HGF:GSSSG was 1:10, 1:50, or 1:400 to prepare samples. A sample was also prepared in which GSSSG dihydrate was not added and the molar ratio of HGF:GSSSG was 1:0. Peroxynitrite (ONOO^−) was immediately added to each sample such that the molar ratio of HGF:ONOO^− was 1:500. The samples were held at pH 7.2 to 7.4 and 25 to 37° C. for 30 minutes (nitrating treatment) to give nitrated samples.
The obtained nitrated samples were subjected to Western blotting in accordance with a conventional method. The nitrated samples were treated with a solution containing SDS and β-mercaptoethanol to give samples for reduced SDS-PAGE. A 10% polyacrylamide gel was used for electrophoresis. The material of the transfer membrane used was nitrocellulose. HRP-labeled anti-nitrotyrosine monoclonal antibody (catalog number: sc-32757 HRP, manufactured by Santa Cruz Biotechnology) and HRP-labeled anti-HGF monoclonal antibody (catalog number: sc-374422 HRP, manufactured by Santa Cruz Biotechnology) were used. The immune response was recorded on an imaging device using ECL reagents. Nitrated bovine serum albumin (BSAnitro) was used as a positive control sample. PL (Protein Ladder) and MW-STD (Molecular Weight-Standard) in FIG. 1 are molecular weight markers. Further, material A in FIG. 1 means GSSSG.
Nitration treatment and Western blotting were performed in the same manner as in Example 1 except that lipoic acid trisulfide was used instead of GSSSG and the molar ratio of HGF:ONOO was set to 1:4000. In FIG. 1, material B means lipoic acid trisulfide.

[1] = Solubility in water at 20° C.; assay type: physicochemical; details: free lipoic acid trisulfide

T1 sequence (Q08048 33-728): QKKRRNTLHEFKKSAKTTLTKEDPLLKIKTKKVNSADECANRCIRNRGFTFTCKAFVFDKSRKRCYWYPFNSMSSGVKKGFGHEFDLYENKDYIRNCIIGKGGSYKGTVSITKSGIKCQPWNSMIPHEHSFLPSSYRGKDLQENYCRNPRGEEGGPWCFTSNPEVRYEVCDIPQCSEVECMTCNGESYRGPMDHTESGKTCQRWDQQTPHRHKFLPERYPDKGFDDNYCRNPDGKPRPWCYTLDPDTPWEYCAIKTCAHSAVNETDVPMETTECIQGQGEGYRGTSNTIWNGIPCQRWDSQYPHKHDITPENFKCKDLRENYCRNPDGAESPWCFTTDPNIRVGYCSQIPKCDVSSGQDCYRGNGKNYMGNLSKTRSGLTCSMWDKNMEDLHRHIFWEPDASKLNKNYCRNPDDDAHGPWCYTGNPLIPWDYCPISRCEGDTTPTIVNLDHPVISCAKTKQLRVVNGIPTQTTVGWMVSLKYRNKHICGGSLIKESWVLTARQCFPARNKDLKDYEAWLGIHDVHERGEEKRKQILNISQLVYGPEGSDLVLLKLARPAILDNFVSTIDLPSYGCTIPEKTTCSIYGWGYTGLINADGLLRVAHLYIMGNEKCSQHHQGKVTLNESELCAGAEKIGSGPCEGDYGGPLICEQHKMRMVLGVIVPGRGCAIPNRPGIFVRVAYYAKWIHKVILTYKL

inhibit nitration of tyrosine residues in HGF (recombinant mouse HGF) | Lipoic acid trisulfide Solubility [1] | SMILES | reaction intensity with the anti-nitrotyrosine antibody (nitration of tyrosine residues in HGF) (recombinant mouse HGF; molar ratio HGF:GSSSG 1:0, 1:10, 1:50, 1:400, HGF:ONOO- 1:500, pH 7.2 to 7.4, 25 to 37° C., 30 minutes, FIG. 1) | reaction intensity with the anti-nitrotyrosine antibody (nitration of tyrosine residues in HGF) (recombinant mouse HGF; increasing molar ratio of lipoic acid trisulfide, HGF:ONOO 1:4000, otherwise as Example 1, FIG. 2)
in a concentration-dependent manner | – | N[C@@H](CCC(=O)N[C@@H](CSSSC[C@H](NC(=O)CC[C@H](N)C(=O)O)C(=O)NCC(=O)O)C(=O)NCC(=O)O)C(=O)O [GSSSG, glutathione trisulfide] | decreased with an increase in the molar ratio of GSSSG added | –
– | 300 µg/mL | O=C(O)CCCC[C@@H]1CCSSS1 [Lipoic acid trisulfide R body, (R)-lipoic acid trisulfide] | – | –
in a concentration-dependent manner | – | O=C(O)CCCCC1CCSSS1 (centres unmarked) [lipoic acid trisulfide] | – | decreased with an increase in the molar ratio of lipoic acid trisulfide added

Reference: patent US20240374561A1, “METHOD FOR PREVENTING NITRATION OF TYROSINE RESIDUES IN HEPATOCYTE GROWTH FACTOR USING TRISULFIDE COMPOUND” (KYUSHU UNIVERSITY, NATIONAL UNIVERSITY CORPORATION, priority 2021, published 2024)
